# Measurements taken from article PMC4859609, “Inhibition and Larvicidal Activity of Phenylpropanoids from Piper sarmentosum on Acetylcholinesterase against Mosquito Vectors and Their Binding Mode of Interaction” (PLoS ONE, 2016).
# Columns and labels:
# [1] = tested on: blood-starved female Ae. aegypti; assay: Repellent activity (WHO procedure, treated forearm in cage); type: in vivo, Aedes aegypti; settings: for % repellency: 300 μg/mL
# Description: (§1) This study was carried out according to the method described by WHO standard procedure. Three-day-old blood-starved female of Ae.aegypti, Ae. albopictus and Cx. quinquefasciatus (100 each) were kept in a net cage (23 cm × 23 cm × 23 cm). Hands that had no contact with lotions, perfumes or perfumed soaps were exposed to the mosquito cage. Only 25 cm^2 dorsal side of the skin on each arm was exposed and the remaining area covered by rubber gloves. The tested substance was applied at several dosages, separately in the exposed area of the forearm. Acetone was served as control. The timing of the test depended on whether the tested mosquitoes were day or night biters. Ae.aegypti and Ae. albopictus were tested from 6 am to 9 am hours, while Cx. quinquefasciatus was tested from […] to 7 pm hours. Both control and treated arms were introduced simultaneously into the mosquito cage, and followed by gentle tapping on the sides of the experimental cages to activate the mosquitoes. Each test concentration was repeated four times. The volunteers conducted test for each concentration by inserting the treated and control arms into the same cage for one minute and repeated this action every five minutes. The mosquitoes that landed on the hand were recorded and then shaken off before imbibing any blood. The percentage of repellency was calculated by the following formula, %Repellency=[Ta−Tb/Ta]×100%,where
# (§2) Ta: the number of mosquitoes in the control group.
# (§3) Tb: the number of mosquitoes in the treated group.
# [2] = tested on: blood-starved female Ae. albopictus; assay: as above; type: in vivo, Aedes albopictus; settings: for % repellency: 300 μg/mL
# Description: as §1, §2, §3
# [3] = target: AChE extracted from Ae. aegypti larvae (Aedes aegypti, UniProt A4GND7); assay: Acetylcholinesterase inhibition assay (in vitro, modified Ellman); type: biochemical
# Description: (§4) For this experiments, the larvae were removed and homogenized at 0°C (keeping the homogenized mixture in plastic tube covered with ice) in 0.05 M-phosphate buffer, pH7.5 (KH2PO4-NaOH) (Merck, USA) by using a glass homogenizer with a polytetrafluoroethylene (PTFE) pestle (5%, w/v, homogenate). The homogenates were centrifuged for 20 min at 5°C and 16000 rpm. These supernatants were collected with pipette and kept inside the ice for studying the AChE inhibition biochemical assay.
# (§5) To determine the IC50 values, procedures from Ellman et al., 1961 were modified and applied. Electronic multichannel pipette (Eppendorf, USA) was used to transfer exact 10 μL of enzyme solution to each well of a 96-well microtiter plate further mixed with 20 μL of tested compounds in solution form and 150 μL of cold phosphate buffer which were kept in refrigerator 1–4°C. The assay microtiter plates were incubated at 25°C for 10 min. Inhibitors were dissolved in DMSO (Merck, USA) in several concentration and stocks diluted to give a final concentration of 0.1% DMSO (v/v) were added into test well in separated rows. This was followed by adding 20 μL of acetylthiocholine iodide (ACTHI) (Sigma-Aldrich, USA) (0.4 mM) and DTNB (Sigma-Aldrich, USA) (0.3 mM) to enzyme solution to observe the reaction. Yellowish or colorless solution was observed during reaction for 30 minutes at room temperature. Changes in absorbance were recorded by a microplate readers (Synergy H1 Hybrid Multi-Mode Microplate Reader, USA) at 412 nm. Enzyme concentrations used were within the linear range of their toxicity activity.
# (§6) %Inhibition=[Acon−Asam/Acon]×100%,where
# (§7) Acon: the absorbance of the control
# (§8) Asam: the absorbance of the test sample.
# (§9) The IC50 was calculated by log-probit analysis using Polo Plus program. Another set of supernatant was loaded with 20 μL of ACTHI and DTNB solution only which served as control. The mean IC50 significant values were statistically determined by comparison of confident interval.
# [4] = target: AChE extracted from Cx. quinquefasciatus larvae (Culex quinquefasciatus, UniProt Q867X2); assay: as above; type: biochemical
# Description: as §4, §5, §6, §7, §8, §9
# [5] = target: AChE extracted from Ae. albopictus larvae (Aedes albopictus, UniProt Q2PGF2); assay: as above; type: biochemical
# Description: as §4, §5, §6, §7, §8, §9
# [6] = tested on: Ae. albopictus eggs; assay: Ovicidal activity (egg hatching); settings: for mortality at 25 µg/mL: read-out: ovicidal activity (% of egg mortality), 25 μg/mL
# [7] = tested on: Ae. aegypti eggs; assay: Ovicidal activity (egg hatching); settings: for mortality at 25 µg/mL: read-out: ovicidal activity (% of egg mortality), 25 μg/mL
# [8] = tested on: blood-starved female Cx. quinquefasciatus; assay: Repellent activity (WHO procedure, treated forearm in cage); type: in vivo, Culex quinquefasciatus
# Description: as §1, §2, §3
# [9] = tested on: Culex quinquefasciatus larvae; assay: Larval bioassay (WHO larvicidal procedure), late 3rd or early 4th larvae; settings: for mortality at 9.3 µg/mL: Culex quinquefasciatus, 24 h, read-out: % larvae mortality; for dosage that can cause 50% mortality: larvae; for dosage that can cause 50% mortality / % larvae mortality: 24 hours; for % larvae mortality: ≤ 15 μg/mL
# Description: (§10) All tested insects used for the experiments were obtained from colonies cultured in the laboratory at 27 ± 2°C and 65 ± 5% relative humidity. To determine the susceptibility, three species of adult mosquitoes and larvae of Ae. aegypti, Ae. albopictus and Cx. quinquefasciatus were used as sample and were measured over a period of 1 year (2012–2013) in this study. Each different species was categorized and reared in laboratory as laboratory strains. Ae. aegypti, Ae. albopictus and Cx. quinquefasciatus were collected from cemetery near the Malaysia International Airport KLI, 2011. Mosquito larvae were placed in plastic containers located in cages (23cm x 23cm x 23cm) at laboratory condition with a photoperiod of 13 hours of daylight and 11 hours of darkness for emergence.
# (§11) The larval bioassay was performed on late 3rd or early 4th larvae of Ae. aegypti, Ae. albopictus and Cx. quinquefasciatus according to the WHO larvicidal activity standard procedure. 15 mg of asaricin 1, isoasarone 2 and trans-asarone 3 were separately dissolved in 1 mL of acetone as stock solution and several concentrations (4 to 20 μg/mL) were prepared through serial dilution by mixing specific amount of stock solution with 250mL distilled water. Twenty five larvae of Ae. aegypti, Ae. albopictus and Cx. quinquefasciatus were separately introduced into the plastic cups containing appropriate concentrations of asaricin 1, isoasarone 2 and trans-asarone 3. Control was only treated with 1 mL acetone added to 250mL distilled water. Mortality of the tested larvae was recorded at the end of 24 hours. Each treatment was replicated four times.
# (§12) %larvae mortality=Number of dead larvae/Total number of introduced larvae×100%
# [10] = tested on: Aedes albopictus larvae; assay: as above; settings: 24 hours; for dosage that can cause 50% mortality: larvae
# Description: as §10, §11, §12
# [11] = tested on: Aedes aegypti larvae; assay: as above; settings: 24 hours; for dosage that can cause 50% mortality: larvae
# Description: as §10, §11, §12
# [12] = tested on: Cx. quinquefasciatus eggs; assay: Ovicidal activity (egg hatching); settings: for mortality at 25 µg/mL: read-out: ovicidal activity (% of egg mortality), 25 μg/mL
# [13] = tested on: AChE extracted from Cx. quinquefasciatus larvae; assay: Acetylcholinesterase inhibition assay (in vitro, modified Ellman); type: biochemical; settings: Culex quinquefasciatus; 95% confidence interval in brackets; log-probit
# Description: as §4, §5, §6, §7, §8, §9
# [14] = Aedes albopictus, 48 h, 48 hours
# [15] = Culex quinquefasciatus, 48 h, 48 hours
# [16] = even at higher dosage of 100 μg/mL
# AChE extracted from Cx. quinquefasciatus larvae (Culex quinquefasciatus, UniProt Q867X2), sequence (Q867X2 whole entry): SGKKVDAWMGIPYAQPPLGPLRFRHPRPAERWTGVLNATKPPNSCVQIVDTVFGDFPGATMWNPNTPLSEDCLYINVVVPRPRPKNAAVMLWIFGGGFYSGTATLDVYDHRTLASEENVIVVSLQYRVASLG
# AChE extracted from Ae. albopictus larvae, sequence (Q2PGF2 37-680): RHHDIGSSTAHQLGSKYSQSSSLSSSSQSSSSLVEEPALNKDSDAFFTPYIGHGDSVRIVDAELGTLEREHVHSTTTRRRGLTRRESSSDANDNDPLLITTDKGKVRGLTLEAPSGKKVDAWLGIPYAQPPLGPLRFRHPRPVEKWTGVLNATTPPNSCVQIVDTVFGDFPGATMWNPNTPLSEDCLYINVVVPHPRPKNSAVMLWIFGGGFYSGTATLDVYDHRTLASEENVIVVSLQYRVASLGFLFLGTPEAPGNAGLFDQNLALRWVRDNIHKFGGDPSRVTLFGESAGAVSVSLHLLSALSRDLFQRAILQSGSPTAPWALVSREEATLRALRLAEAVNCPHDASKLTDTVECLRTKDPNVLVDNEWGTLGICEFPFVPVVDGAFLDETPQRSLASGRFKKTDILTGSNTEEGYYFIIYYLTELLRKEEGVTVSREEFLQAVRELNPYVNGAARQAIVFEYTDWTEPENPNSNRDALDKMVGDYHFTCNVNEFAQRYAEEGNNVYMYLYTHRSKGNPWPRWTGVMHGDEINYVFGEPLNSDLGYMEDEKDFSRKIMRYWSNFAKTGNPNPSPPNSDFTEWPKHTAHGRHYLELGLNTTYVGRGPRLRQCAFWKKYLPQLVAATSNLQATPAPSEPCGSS
# AChE extracted from Ae. aegypti larvae, sequence (A4GND7 37-679): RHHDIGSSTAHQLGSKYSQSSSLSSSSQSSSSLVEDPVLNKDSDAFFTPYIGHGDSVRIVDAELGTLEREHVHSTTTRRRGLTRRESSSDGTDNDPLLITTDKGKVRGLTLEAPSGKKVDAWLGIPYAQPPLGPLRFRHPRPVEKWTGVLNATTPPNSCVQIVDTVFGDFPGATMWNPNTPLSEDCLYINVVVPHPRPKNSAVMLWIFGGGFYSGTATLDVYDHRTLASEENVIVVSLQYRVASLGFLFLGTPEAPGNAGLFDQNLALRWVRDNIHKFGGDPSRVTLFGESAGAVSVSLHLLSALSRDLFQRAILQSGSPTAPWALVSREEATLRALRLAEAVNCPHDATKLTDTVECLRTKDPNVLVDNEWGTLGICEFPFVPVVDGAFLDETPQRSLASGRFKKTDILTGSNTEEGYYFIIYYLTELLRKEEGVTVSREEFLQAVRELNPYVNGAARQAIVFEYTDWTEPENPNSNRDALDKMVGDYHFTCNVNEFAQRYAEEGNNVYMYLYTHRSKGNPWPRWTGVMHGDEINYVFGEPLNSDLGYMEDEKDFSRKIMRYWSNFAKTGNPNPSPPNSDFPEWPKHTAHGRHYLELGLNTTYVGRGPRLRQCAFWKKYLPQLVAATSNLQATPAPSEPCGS
Compound,% repellency [1],repellent activity (in words) ([1]; 50 to 150 μg/mL),% repellency [2],repellent activity (in words) ([2]; 50 to 150 μg/mL),Slope ± S.E of log-probit AChE inhibition curve [3],Slope ± S.E of log-probit AChE inhibition curve [4],Slope ± S.E of log-probit AChE inhibition curve [5],"mortality at 25 µg/mL [6, 14]","mortality at 25 µg/mL ([7]; Aedes aegypti, 48 h, 48 hours)",repellent activity (in words) ([8]; 50 to 150 μg/mL),mortality at 9.3 µg/mL [9],dosage that can cause 50% mortality [9],dosage that can cause 50% mortality [10],% larvae mortality ([10]; ≤ 9.3 μg/mL),dosage that can cause 50% mortality [11],"mortality at 25 µg/mL [12, 15]",also measured
"C=CCc1cc2c(cc1OC)OCO2 [Asaricin 1, asaricin]",below 65%,very weak,below 65%,very weak,2.07±0.13,2.50±0.14,2.25±0.14,≤ 95%,≤ 95%,very weak,≤ 80%,≤ 7 µg/mL,≤ 7 µg/mL,≤ 90%,≤ 7 µg/mL,≤ 95%,"% repellency ([8]; 300 μg/mL): below 65%; % larvae mortality [9]: up to 100%; % larvae mortality ([9]; listed as asaricin 1): 100%; % larvae mortality ([10]; ≤ 15 μg/mL): up to 100%; % larvae mortality ([10]; ≤ 15 μg/mL, listed as asaricin 1): 100%"
"C=CCc1cc(OC)c(OC)cc1OC [Isoasarone 2, isoasarone]",below 55%,very weak,below 55%,very weak,2.41±0.15,2.29±0.13,2.57±0.14,≤ 95%,≤ 95%,very weak,≤ 80%,≤ 7 µg/mL,≤ 7 µg/mL,≤ 90%,≤ 7 µg/mL,≤ 95%,"mortality at 20 µg/mL ([6]; Aedes albopictus, 48 h, read-out: ovicidal activity (% of egg mortality), 20 μg/mL, 48 hours): 80 to 90%; mortality at 20 µg/mL ([7]; Aedes aegypti, 48 h, read-out: ovicidal activity (% of egg mortality), 20 μg/mL, 48 hours): 80 to 90%; mortality at 20 µg/mL ([12]; Culex quinquefasciatus, 48 h, read-out: ovicidal activity (% of egg mortality), 20 μg/mL, 48 hours): 80 to 90%"
"C/C=C/c1cc(OC)c(OC)cc1OC [Trans-asarone 3, trans-asarone]",–,–,–,–,3.63±0.14,2.46±0.13,2.00±0.16,–,–,–,5 to 20%,–,–,5–20%,–,–,"repellent activity (in words) ([1]; in vivo): not significant; repellent activity (in words) ([2]; in vivo): not significant; AChE enzyme inhibition IC50 [13]: 17.4(12.6 to 24.4) μg/mL; effect on egg hatchability [6, 16]: no effect; effect on egg hatchability [7, 16]: no effect; repellent activity (in words) ([8]; in vivo): not significant; % larvae mortality ([11]; ≤ 9.3 μg/mL): 5–20%; effect on egg hatchability [12, 16]: no effect"
